# Values of other authors, collected in PMC10604720, “Unraveling the Mechanism of Epichaperome Modulation by Zelavespib: Biochemical Insights on Target Occupancy and Extended Residence Time at the Site of Action” (Biomedicines, 2023).
# Set-up: method as in PMID 31668946
# Conditions: whole-body PET imaging, mice; cited from earlier work
compound,measurement,value
CC(C)NCCCn1c(Sc2cc3c(cc2I)OCO3)nc2c(N)ncnc21 [zelavespib],T1/2 in MDA-MB-468 tumors,approximately 60 h
